47 molecules from ChEMBL document CHEMBL1138078, “Antitumor activity of JS-K [O2-(2,4-dinitrophenyl) 1-[(4-ethoxycarbonyl)piperazin-1-yl]diazen-1-ium-1,2-diolate] and related O2-aryl diazeniumdiolates in vitro and in vivo” (J Med Chem, 2006) can be followed below.

Test [1] relates to HL-60. As to the kind of experiment: Antiproliferative activity against human HL60 cell line. Format: functional, cell-based.
The test system of test [2] is 786-0. As to the kind of experiment: Antiproliferative activity against human 786-0 cell line at 100 uM. Format: functional.
For test [3], the system named is TK-10. Description: Antiproliferative activity against human TK10 cell line at 100 uM. Format: functional.
For test [4], the system named is CAKI-1. Description: Antiproliferative activity against human CAKI1 cell line at 100 uM. The format is functional.
The test system of test [5] is Panel NCI-51 (51 carcinoma cell lines). Description: Antiproliferative activity against human NCI51 cell line. The format is functional.
Test [6] concerns JM1. As to the kind of experiment: Antiproliferative activity against JM1 cell line implanted in Fischer rat liver assessed as decrease in tumor weight. The format is functional, cell-based.

One may read the IC50 as the midpoint of a concentration-inhibition curve. Low readings indicate inhibition by little substance, high ones a need for much substance. `O=[N+]([O-])c1ccc(Cl)c([N+](=O)[O-])c1` [DINITROCHLOROBENZENE] came in with an IC50 in test [1] (hl-60) of 1.4 µM.
As to `CCN(CC)/[N+]([O-])=N/Oc1ccc([N+](=O)[O-])cc1[N+](=O)[O-]`, half-maximal inhibition in test [1] (Homo sapiens, HL-60) (IC50) required 2.2 µM.
`CN(C)/[N+]([O-])=N\Oc1cc(O)c([N+](=O)[O-])cc1[N+](=O)[O-]` came in with an IC50 in test [1] (Homo sapiens, HL-60) of over 100 µM.
Molecule `CCN(CC)/[N+]([O-])=N\Oc1ccnc(SC)n1` showed an IC50 in test [1] (Homo sapiens, HL-60) of over 100 µM.
The same measure, in the same setting: the same measure for `CCOC(=O)N1CCN(/[N+]([O-])=N/Oc2cc(F)c([N+](=O)[O-])cc2[N+](=O)[O-])CC1`: 1 µM; for `CC(=O)Oc1ccccc1C(=O)N1CCN(/[N+]([O-])=N\Oc2ccc([N+](=O)[O-])cc2[N+](=O)[O-])CC1`: 3.7 µM.
With `CCN(CC)/[N+]([O-])=N\Oc1ccccc1[N+](=O)[O-]`, the IC50 in test [1] (Homo sapiens, HL-60) is over 100 µM.
Broadly, the TGI is the concentration at which net growth stops. Read a high TGI as lower sensitivity of the cells. Broadly, the GI50 is the concentration at which growth is held to half of that of the control. For orientation: LC50 means the concentration that kills 50% of the test population. A higher LC50 goes with a less lethal substance. In test [1] (Homo sapiens, HL-60), `CCCCOC(=O)N1CCN(/[N+]([O-])=N\Oc2ccc([N+](=O)[O-])cc2[N+](=O)[O-])CC1` showed an IC50 of 3.5 µM and a TGI of 57.5 µM. In test [2], this molecule showed an Activity of 100%. The molecule also showed an Activity in test [3] of 100%. The molecule further had an Activity in test [4] of 100%. In test [5], this molecule returned a GI50 of 6.31 µM, a median lethal concentration (LC50) of 63.1 µM and a TGI of 23.4 µM.
In turn, `O=C(OCc1ccccc1)N1CCN(/[N+]([O-])=N\Oc2ccc([N+](=O)[O-])cc2[N+](=O)[O-])CC1` yielded an IC50 in test [1] (Homo sapiens, HL-60) of 17 µM. For the same molecule, the Activity in test [2] is reported as 100%. The Activity in test [3] worked out at 100%. Besides, the Activity in test [4] is on record as 100%. In test [5], this molecule yielded a 50% growth inhibitory concentration (GI50) of 7.08 µM, an LC50 of 77.6 µM and a TGI of 30.9 µM.
In test [1] (Homo sapiens, HL-60), `CCCOC(=O)N1CCN(/[N+]([O-])=N\Oc2ccc([N+](=O)[O-])cc2[N+](=O)[O-])CC1` displayed an IC50 of 3.7 µM and a TGI of 8.1 µM. The Activity in test [2] is given as 100%. Also, the Activity in test [3] is on record as 100%. In test [4], this molecule yielded an Activity of 100%. In test [5], this molecule displayed a GI50 of 2.04 µM, an LC50 of 40.7 µM and a TGI of 10.2 µM.
In test [1] (Homo sapiens, HL-60), `O=[N+]([O-])c1ccc(O/N=[N+](/[O-])N2CCN(c3ccccc3)CC2)nc1` registered an IC50 of 8 µM.
On the same count and under the same terms, the same measure for `N[C@@H](CCC(=O)N[C@H](CSc1ccc([N+](=O)[O-])cc1[N+](=O)[O-])C(=O)NCC(=O)O)C(=O)O`: 8.4 µM.
Still for that read-out and setting: the same measure for `O=[N+]([O-])c1ccc(O/N=[N+](/[O-])N2CCNCC2)c([N+](=O)[O-])c1`: 5 µM; for `O=[N+]([O-])c1ccc(O/N=[N+](/[O-])N2CCN(c3ccccc3)CC2)c([N+](=O)[O-])c1`: 1.5 µM; for `CN(C)/[N+]([O-])=N\Oc1ccc([N+](=O)[O-])cn1`: over 100 µM.
On to `O=NO` [SODIUM NITRITE], for which inhibition in test [1] (Homo sapiens, HL-60) was half-maximal at 94 µM (IC50). That is a double-digit micromolar value.
Same read-out and setting: the same measure for `NC(=O)C1CCN(/[N+]([O-])=N/Oc2ccc([N+](=O)[O-])cc2[N+](=O)[O-])CC1`: 5.9 µM.
Same read-out and setting: the same measure for `CCN(CC)C(=O)N1CCN(/[N+]([O-])=N\Oc2ccc([N+](=O)[O-])cc2[N+](=O)[O-])CC1`: 7.3 µM; for `CN(C)/[N+]([O-])=N/Oc1cc(Nc2cccc(C(=O)O)c2)c([N+](=O)[O-])cc1[N+](=O)[O-]`: 10.1 µM.
`CCOC(=O)N1CCN(/[N+]([O-])=N/Oc2ccc([N+](=O)[O-])cc2[N+](=O)[O-])CC1` registered an IC50 in test [1] (Homo sapiens, HL-60) of 0.5 µM. Besides, in test [5], growth was halved (GI50) at 1.32 µM and the TGI turned out to be 6.61 µM. Further, the Activity result in test [6] is “Dose-dependent effect”.
On to `CC(=O)N1CCN(/[N+]([O-])=N\Oc2ccc([N+](=O)[O-])cc2[N+](=O)[O-])CC1`, for which it took 3.9 µM to reach half-maximal inhibition in test [1] (Homo sapiens, HL-60) (IC50). This lies in the single-digit micromolar range.
Same read-out and setting: the same measure for `NC(=O)C1CCCN(/[N+]([O-])=N/Oc2ccc([N+](=O)[O-])cc2[N+](=O)[O-])C1` (stereo not given): 4.4 µM.
On the same count and under the same terms, the same measure for `O=[N+]([O-])c1ccc(O/N=[N+](\[O-])N2CCCC2)c([N+](=O)[O-])c1`: 7.4 µM; for `O=[N+]([O-])c1cc(C(F)(F)F)ccc1O/N=[N+](\[O-])N1CCN(c2ccccc2)CC1`: over 100 µM; for `CCOC(=O)N1CCN(/[N+]([O-])=N/Oc2ccnc(Cl)n2)CC1`: 70 µM.
The same measure, in the same setting: the same measure for `CCN(CC)/[N+]([O-])=N\Oc1ccc([N+](=O)[O-])cc1C(F)(F)F`: 96 µM.
In test [1] (Homo sapiens, HL-60), `CC(C)(C)OC(=O)N1CCN(/[N+]([O-])=N\Oc2ccc([N+](=O)[O-])cc2[N+](=O)[O-])CC1` yielded an IC50 of 8.1 µM.
On the same count and under the same terms, the same measure for `CC(=O)NCC(=O)N1CCN(/[N+]([O-])=N\Oc2ccc([N+](=O)[O-])cc2[N+](=O)[O-])CC1`: 8.8 µM.
On the same count and under the same terms, the same measure for `CN1CCN(/[N+]([O-])=N\Oc2ccc([N+](=O)[O-])cc2[N+](=O)[O-])CC1`: 6.7 µM; for `CC(C)Cc1ccc(C(C)C(=O)N2CCN(/[N+]([O-])=N\Oc3ccc([N+](=O)[O-])cc3[N+](=O)[O-])CC2)cc1` (stereo not given): 3.2 µM; for `COc1ccc(N(C)c2cc(O/N=[N+](/[O-])N(C)C)c([N+](=O)[O-])cc2[N+](=O)[O-])cc1`: over 100 µM.
On the same count and under the same terms, the same measure for `CN(c1cccc(C(=O)O)c1)c1cc(O/N=[N+](/[O-])N(C)C)c([N+](=O)[O-])cc1[N+](=O)[O-]`: 12 µM.
In test [1] (Homo sapiens, HL-60), `O=[N+]([O-])c1ccc(O/N=[N+](\[O-])N2CCN(c3ncccn3)CC2)c([N+](=O)[O-])c1` showed an IC50 of 3.6 µM. Against the preceding molecule, the IC50 is about 3.3-fold lower.
On the same count and under the same terms, the same measure for `CCOC(=O)N1CCN(/[N+]([O-])=N\O)CC1`: 4 µM.
In test [1] (Homo sapiens, HL-60), `CN(C)S(=O)(=O)N1CCN(/[N+]([O-])=N\Oc2ccc([N+](=O)[O-])cc2[N+](=O)[O-])CC1` came in with an IC50 of 5.2 µM.
Take `CCOC(=O)N1CCNCC1` [N-(ETHOXYCARBONYL)PIPERAZINE]: in test [1] (Homo sapiens, HL-60), the IC50 came to 8.6 µM. This IC50 lies about 1.7-fold higher than the previous one.
Regarding `CN(C)/[N+]([O-])=N\Oc1cc(Nc2ccc(C(=O)O)cc2)c([N+](=O)[O-])cc1[N+](=O)[O-]`, the IC50 in test [1] (Homo sapiens, HL-60) stood at 9.1 µM.
On the same count and under the same terms, the same measure for `CN(C)/[N+]([O-])=N\Oc1cc(F)c([N+](=O)[O-])cc1[N+](=O)[O-]`: 3.5 µM; for `CNc1ccc(C(=O)Oc2cc(O/N=[N+](/[O-])N(C)C)c([N+](=O)[O-])cc2[N+](=O)[O-])cc1`: 6.3 µM; for `CCOC(=O)N1CCN(/[N+]([O-])=N/Oc2cc(O/N=[N+](\[O-])N3CCN(C(=O)OC)CC3)c([N+](=O)[O-])cc2[N+](=O)[O-])CC1`: 0.8 µM.
`O=[N+]([O-])c1ccc(O)c([N+](=O)[O-])c1` [2,4-DINITROPHENOL]: it took 98 µM to reach half-maximal inhibition in test [1] (Homo sapiens, HL-60) (IC50).
The molecule `C1CNCCN1` [PIPERAZINE] gave an IC50 in test [1] (Homo sapiens, HL-60) of 83 µM.
Take `O=C(c1cccnc1)N1CCN(/[N+]([O-])=N\Oc2ccc([N+](=O)[O-])cc2[N+](=O)[O-])CC1`: in test [1] (Homo sapiens, HL-60), the IC50 worked out at 7.3 µM.
Still for that read-out and setting: the same measure for `CCN(CC)/[N+]([O-])=N/Oc1cc(O/N=[N+](/[O-])N(CC)CC)c([N+](=O)[O-])cc1[N+](=O)[O-]`: 1 µM; for `O=C(ON1C(=O)CCC1=O)N1CCN(/[N+]([O-])=N\Oc2ccc([N+](=O)[O-])cc2[N+](=O)[O-])CC1`: 27 µM; for `CCN(CC)/[N+]([O-])=N\Oc1ccc([N+](=O)[O-])cc1`: over 100 µM.
On the same count and under the same terms, the same measure for `CN(C)/[N+]([O-])=N\Oc1ccc([N+](=O)[O-])cc1[N+](=O)[O-]`: 2.4 µM.
